Earlier results in publication PMC9499927, “Peptidomimetics designed to bind to RAS effector domain are promising cancer therapeutic compounds” (Scientific Reports, 2022).

Experiments:
[1] = tested on: patients with previously untreated metastatic pancreatic cancer; details: randomized phase 2/3 trial
Description: (§1) The unclear results obtained using these experimental approaches has led the scientific community to refocus on the search for direct RAS inhibitors. With this objective, two strategies are currently being followed: the first involves searching for molecules that block the interaction with non-effector RAS proteins that bind to the HVR and/or the allosteric lobe and which modulate RAS activity; and the second is looking for drugs that inhibit the binding of RAS with its effectors[20],[21]. In this context, Rigosertib, a compound that binds to the Ras-binding domain of multiple RAS effector ...

[2] = tested on: Ras-binding domain of multiple RAS effectors
Description: as §1

[3] = tested on: KRAS-mutant colon and pancreatic cancer mouse models
Description: as §1

COc1cc(OC)c(/C=C/S(=O)(=O)Cc2ccc(OC)c(NCC(=O)O)c2)c(OC)c1 [Rigosertib]
Clinical benefit of addition to gemcitabine [1]: no benefit | Binding [2]: binds to the Ras-binding domain of multiple RAS effectors | Tumour growth inhibition [3]: proven to inhibit tumour growth
